This assay deals with subfoveal choroidal neovascularization (CNV) secondary to age-related macular degeneration (AMD). In words: Indocyanine green mediated photothrombosis (i-MP) with and without intravitreal Bevacizumab in patients (Example 4). It counts as in vivo, human.

With “i-MP+intravitreal Bevacizumab: i-MP combined with an intravitreal injection of Bevacizumab (Avastin), an anti-VEGF compound”, the “need to perform a second treatment session” value (10 months of follow-up, 25 eyes) is “not required”. In addition, the “eyes with improvement of the visual acuity in 2 lines (Group B: almost 2 lines) with staining in the fluorescein angiography” value (10 months of follow-up, 25 eyes per group) is given as 68%. Also, the “response of the choroidal neovascular membranes (fluorescein angiography and OCT)” value (10 months of follow-up, compared with i-MP alone) was “responded better”. Further, the “visual acuity obtained by a single patient” value (left eye, occult CNV, visual acuity 0.1 before treatment, 10 months after treatment) stood at 0.3.
